Assays:
VPS13A = VPS13A protein expression in LNCaP cells after calcium modifiers (SDS-PAGE / western blot); assay type: cell-based; conditions: LNCaP cells treated for 8 hours with 10 μM; lysates probed for VPS13A and tubulin
Procedure: Non-targeting control LNCaP cells or siVPS13A cells were treated for 8 hours with 10 μM BAPTA (B), calcimycin (Cal) or control (C). Protein lysates were separated by SDS-PAGE and probed for VPS13A and tubulin.
Cells were fixed and stained as before using anti-VPS13A antibody (1:50, Human Protein Atlas) and LAMP2 antibody (1:500, BD Biosciences) (8). Cells were imaged using Alexafluor 594 and 488 secondary antibodies (Molecular Probes) and mounted with DAPI. All images were obtained using a Nikon Eclipse confocal microscope using a 100× objective. For calcium modifying experiments, LNCaP cells were grown as before to ˜50% confluence before being treated for 8 hours with 10 μM of the calcium ionophore, calcimycin (Invitrogen) or 10 μM of the calcium chelating agent 1,2-bis(o-aminophenoxy)ethane-N,N,N′,N′-tetraacetic acid (BAPTA) (Invitrogen) (Whitaker et al., 2007).
Protein lysates were produced as described (8) and separated by SDS-PAGE before blotting for VPS13A (1:1000, Human Protein Atlas), FAK (1:1000, Cell Signaling Technology), pTyr397-FAK (1:1000, Cell Signaling Technology) or tubulin (1:2000, Abcam).

LNCaP cells = assay: Confocal microscopy of VPS13A vesicle association/fusion with LAMP2-positive lysosomes; assay type: cell-based
Procedure: FIG. […] The cells were then fixed and stained for LAMP2 and VPS13A. Using the 100× lens, the number of lysosomes in 10 fields of view were counted. Then the number of VPS13A fusion events was counted in the same field of view. A fusion event was classed as a VPS13A vesicle touching or integrated into a LAMP2 positive lysosome. *Data are shown normalised to the number of lysosomes in each field of view. P-values were calculated using a Mann-Whitney 2-tailed t-test.
Cells were fixed and stained as before using anti-VPS13A antibody (1:50, Human Protein Atlas) and LAMP2 antibody (1:500, BD Biosciences) (8). Cells were imaged using Alexafluor 594 and 488 secondary antibodies (Molecular Probes) and mounted with DAPI. All images were obtained using a Nikon Eclipse confocal microscope using a 100× objective. […]

Structure (SMILES) | intracellular levels of VPS13A (VPS13A protein expression) (VPS13A) | VPS13A vesicle integration into the lysosome membrane (LNCaP cells; cells treated with bafilomycin, LAMP2 staining) | number of VPS13A vesicles that associated with lysosomes (fusion events, normalised to number of lysosomes) (LNCaP cells; LNCaP cells, LAMP2 and VPS13A staining, p=0.0004)
O=C(O)CN(CC(=O)O)c1ccccc1OCCOc1ccccc1N(CC(=O)O)CC(=O)O [BAPTA, 1,2-bis(o-aminophenoxy)ethane-N,N,N′,N′-tetraacetic acid] | no significant change in VPS13A expression | – | –
CO/C1=C\C(C)=C\[C@@H](C)[C@@H](O)[C@@H](C)C/C(C)=C/C=C/[C@H](OC)[C@@H]([C@@H](C)[C@@H](O)[C@H](C)[C@@]2(O)C[C@@H](O)[C@H](C)[C@@H](C(C)C)O2)OC1=O [bafilomycin] | – | VPS13A vesicles are seen integrated into the lysosome membrane | –
CNc1ccc2oc(C[C@H]3O[C@@]4(CC[C@H]3C)O[C@H]([C@H](C)C(=O)c3ccc[nH]3)[C@H](C)C[C@H]4C)nc2c1C(=O)O [calcimycin] | increase in the intracellular levels of VPS13A | – | highly significant decrease

Reference: patent publication US20160018400A1, “DIAGNOSTIC AND PROGNOSTIC BIOMARKERS FOR PROSTATE CANCER AND OTHER DISORDERS” (CANCER RESEARCH TECHNOLOGY LIMITED, priority 2013, published 2016)
